Experiments:
[1] = system: EAHY926 cells; test: Cell viability assay (MTT); type: cell-based, human; conditions: EAHY926, 24 hours, 37° C., at various concentrations, FIG. 4
Excerpt: (§1) In the present disclosure, the cell line for the cell experiment is EAHY926 (human vascular endothelial cell line), and the mouse strain for the animal experiment is BALB/c Nude mouse.
(§2) In this experiment, 3-(4,5-cimethylthiazol-2-yl)-2,5-diphenyl tetrazolium bromide (also called MTT) was used for testing cell viability. MTT is a yellow compound and a dye that accepts hydrogen ions and acts on the respiratory chain of living cell mitochondria. Under the action of succinate dehydrogenase (SDH) and cytochrome C, the tetrazolium ring of MTT will be cracked to generate blue color crystals. The formation of crystals is proportional to the number of living cells (in dead cells, because there is no active succinate dehydrogenase, MTT cannot be reduced). The O.D value can indirectly represent cell viability because of the MTT reduction ability of living cells.

[2] = system: EAHY926 cells; test: Cell development index assay (Angiogenesis Analyzer for ImageJ); type: cell-based, human; conditions: EAHY926, 7.8 μM, 24th hour; for numbers of endothelial junctions (rank of effects): FIG. 7A; for numbers of endothelial meshes (rank of effects): FIG. 7B; for total branching lengths (rank of effects): FIG. 7C
Experimental: as §1
EAHY926 cells were seeded in cell culture plates at 37° C. […] Microscopic images were taken within the first hour and the 24th hour after the addition of nitric oxide releasing agents, and the images were analyzed by “Angiogenesis Analyzer for ImageJ” software for analyzing cell development index. The analyzed cell development parameters include cell meshes, cell junctions and cell branches.
Please refer to FIGS. 5A to 5H and FIGS. 6A to 6H. In the analysis of cell development, the gray lines were represented as cell branches of the cell-cell junction, and the more lines mean more growth of the cells. In addition, when the cells were more developed because they had more cell branches, the cells were represented by white lines. As the degree of cell development increased, cell junctions (dark gray dots) became more. Further, the cells enclosed multiple circles (black lines) which were called cell meshes.

[3] = system: EAHY926 cells; test: Wound healing assay (in vitro scratch); type: cell-based, human; conditions: EAHY926, 7.8 μM, 1 mm wide line, 24th hour, FIGS. 9A-9I
Experimental: as §1
EAHY926 cells were seeded in cell culture plates at 37° C. […] A 1 millimeter (mm) wide line was scraped off in a culture plate, and images of the culture were taken within the first hour and the 24th hour to record and quantify the percentage of wound healing.

[4] = system: TIE-2; test: Western blot assay, TIE-2 expression; type: cell-based, human; conditions: EAHY926, 7.8 μM, 24 hours, FIG. 12
Experimental: (§3) In the literature, nitric oxide releasing agents have the potential for promoting angiogenesis and wound healing in vivo, and are also clinically useful agents that can effectively promote the expression of vascular endothelial growth factor receptor 2 (VEGFR2). Therefore, this experiment intended to test the effect of the respective various nitric oxide releasing agents on the expression of angiogenesis-related proteins (e.g., TIE-2, and VEGFR-2).
(§4) EAHY926 cells were seeded in cell culture dishes at 37° C. […] After 24 hours incubation, the cultures were washed with PBS three times and added 250 microliters (μL) of cell lysis buffer, then the cells were scraped and the proteins of the cells were extracted for Western blot experiment.

[5] = system: VEGFR-2; test: Western blot assay, VEGFR-2 expression; type: cell-based, human; conditions: EAHY926, 7.8 μM, 24 hours, FIG. 12
Experimental: as §3, §4

[6] = system: Immunodeficient nude mice; test: In vivo angiogenesis assay (DIVAA) in mice; set-up: species or system mouse; conditions: soft tubes implanted in the back, 7.8 μM, twenty days, FIG. 13
Excerpt: as §1
Immunodeficient nude mice (6 in each group) were fixed on the operating table and anesthetized (1-3% isoflurane/100% oxygen, flow rate 1 L/min). After the mice were fixed, two 1 cm incisions were respectfully cut on the left and right back of the mice with a surgical knife. Soft tubes containing mixtures of cell nutrient agents and 7.8 μM of respective nitric oxide releasing agents were prepared. These soft tubes were implanted into the back of the mice, then the wounds were washed with normal saline and were stitched. After 20 days, the soft tubes were removed and the hemoglobins within the soft tubes were released. The total amounts of hemoglobin were analyzed by ELISA analyzer for obtaining the correlation parameters of angiogenesis.
The control group was the conditioned of the soft tube without nitric oxide releasing agents.

[7] = system: zebrafish with fluorescence gene Tg (fli1: EGFP) y1; test: In vivo angiogenesis assay in zebrafish; conditions: 7.8 μM
Experimental: In this experiment, zebrafish with fluorescence gene Tg (fli1: EGFP) y1 were used for in vivo angiogenesis analysis. The zebrafish nutrient solutions were respectively added with the respective various nitric oxide releasing agents at 7.8 μM concentration. The zebrafish were incubated with nitric oxide releasing agents for 24 to 48 hours. The confocal microscopy images were taken at the beginning, the 24th hour, and the 48th hour after incubation, and semi-quantitative analysis of neovascularization in zebrafish oocysts was performed.
FIGS. 14A to 14E show images taken within the first hour after addition of the nitric oxide releasing agents. FIGS. 15A to 15E are images taken within the 24th hour after addition of the nitric oxide releasing agents. FIGS. 16A to 16E are images taken within the 48th hour after addition of nitric oxide releasing agents. Neovascularization in the zebrafish oocyst area is indicated by the white arrows.

[8] = system: chicken embryos; test: Chicken chorioallantoic membrane assay (CAM); type: in vivo; conditions: 7.8 μM injected into eggs after 6 days incubation, 2 days of culture, FIG. 20
Experimental: In this experimental example, the insemination eggs were placed on the egg rack and the eggs' gas chamber were placed upwards in the hatching incubator. After incubation for 6 days, the eggs were screened with an egg detector, and the insemination eggs with hatching embryos were selected. Then, small holes were respectively drilled on the air chamber end (blunt end) and a side of the selected eggs, and 7.8 μM of the respective various nitric oxide releasing agents were injected through the small holes at the blunt end, sterilized filter films were covered on the hole of the air chamber, and then ventilation tapes were put on. The eggs were continuously incubated in the incubator. After 2 days of culture, the eggs were poked and placed in Petri dishes to observe and recorded by a camera.
The condition of the control group was the eggs with no addition of nitric oxide releasing agents.

[9] = system: EAHY926 cells; test: Cell viability (MTT) of the cell cultures of the wound healing test; type: cell-based, human; conditions: EAHY926, 7.8 μM, FIG. 11
Excerpt: as §2
In the present experimental example, then the cell viability was assayed by adding MTT reagent to the various cell cultures of wound healing test. The results are shown in FIG. 11, among all of the groups, the group treated with RRE-1 had the highest cell viability. The result corresponds to the result of FIG. 4. In FIG. 11, the effects of cell viability were ranked as RRE-1>DPTA>MAHMA. The trend is similar to the result of FIG. 10.

VEGF
promotion of cell growth (cell viability, MTT) [1]: does not work better than other commercially available nitric oxide-releasing agents
numbers of endothelial junctions (rank of effects) [2]: RRE-1>VEGF>Spermine>MAHA
numbers of endothelial meshes (rank of effects) [2]: RRE-1>VEGF>MAHMA>Spermine
total branching lengths (rank of effects) [2]: RRE-1>Spermine>VEGF>MAHMA
effect on wound healing (images) [3]: more significant effects on wound healing
expression of protein TIE-2 (Western blot) [4]: only induced a small amount
expression of protein VEGFR-2 (Western blot) [5]: only induced a small amount
angiogenesis inside the soft tubes (total amounts of hemoglobin) [6]: followed by VEGF and Spermine
angiogenesis (neovascularization in zebrafish), overall statement ([7]; 24 to 48 hours): not effective as expected

NCCCNCCCCNCCCN [Spermine]
numbers of endothelial junctions (rank of effects) [2]: RRE-1>VEGF>Spermine>MAHA
numbers of endothelial meshes (rank of effects) [2]: RRE-1>VEGF>MAHMA>Spermine
total branching lengths (rank of effects) [2]: RRE-1>Spermine>VEGF>MAHMA
effect on wound healing (images) [3]: more significant effects on wound healing
expression of protein TIE-2 (Western blot) [4]: only induced a small amount
expression of protein VEGFR-2 (Western blot) [5]: only induced a small amount
angiogenesis inside the soft tubes (total amounts of hemoglobin) [6]: followed by VEGF and Spermine
angiogenesis of chicken embryos (CAM) [8]: similar

CNCCCCCCN(C)/[N+]([O-])=N/O [MAHMA, (Z)-1-[N-Methyl-N-[6-(N-methylammoniohexyl)amino]]diazen-1-ium-1,2-diolate]
numbers of endothelial junctions (rank of effects) [2]: RRE-1>VEGF>Spermine>MAHA
numbers of endothelial meshes (rank of effects) [2]: RRE-1>VEGF>MAHMA>Spermine
total branching lengths (rank of effects) [2]: RRE-1>Spermine>VEGF>MAHMA
cell viability (MTT) after wound healing test [9]: RRE-1>DPTA>MAHMA
expression of protein TIE-2 (Western blot) [4]: only induced a small amount
expression of protein VEGFR-2 (Western blot) [5]: only induced a small amount
angiogenesis (neovascularization in zebrafish oocyst area) ([7]; 24 hours, FIG. 17): most effective

1-(hydroxy-NNO-azoxy)-L-proline, disodium salt
effect on wound healing (images) [3]: more significant effects on wound healing

NCCCN(CCCN)/[N+]([O-])=N/O [DPTA, (Z)-1-[N-(3-aminopropyl)-N-(3-ammoniopropyl)amino]diazen-1-ium-1,2-diolate]
effect on wound healing (images) [3]: more significant effects on wound healing
cell viability (MTT) after wound healing test [9]: RRE-1>DPTA>MAHMA
